Tests used:
[1] = target: T1, NFAT5 (Mus musculus, UniProt Q9WV30); assay: NFAT5 reporter screening (GFP, HCS) in LPS-treated Raw264.7 cells; type: cell-based; conditions: for Inhibition rate of NFAT5 transcription (%): Raw264.7 reporter, LPS 1 μg/ml, 48 hours
T1 construct: endogenous in cells; host or cells: RAW264.7
Protocol: To investigate whether or not the derivative of the present invention could inhibit the transcriptional activity of NFAT5, NFAT5 reporter screening was performed. A plasmid vector was constructed by eliminating CMV promoter sequence from the backbone and inserting NFAT5 binding site sequence ([…]) instead. Raw264.7 cells transfected with the vector were cultured in 10% FBS-PRMI (supplemented with 500 μg/ml G418). The cells were distributed in a 96-well plate at the density of 3×10^3 cells/well, followed by further culture for one more day. The cells were treated with LPS at the concentration of 1 μg/ml for 48 hours. Then, the cells were fixed and the expression level of GFP was measured by HCS fluorescence image (Thermo, ArrayScan^VTI).

[2] = system: NFAT5; assay: NFAT5 transcription and nuclear localization in LPS-stimulated RAW264.7 cells; type: cell-based, mouse; conditions: FIG. 4
Protocol: Particularly, RAW264.7 cells were distributed in a 12-well plate at the density of 1.5×10^5 cells/well, followed by culture in 10% FBS-RPMI 1640 medium. The cells were stabilized for a day. The compound of Example 1 was treated thereto at the concentration of 1 μM for 1 hour, and then the cells were stimulated with LPS for 12 hours. 12 hours later, mRNA was extracted from the cells, and cDNA was synthesized therefrom. PCR (real-time PCR) was performed to measure the expression level of NFAT5 mRNA. The migration of the transcription factor NFAT5 from the cytoplasm to the nucleus was investigated. Particularly, RAW264.7 cells were distributed in a 6-well plate at the density of 6×10^5 cells/well, followed by culture in 10% FBS-RPMI 1640 medium. The cells were pre-treated with the compound 6 (1 μM) for 1 hour, and treated with LPS (1 μg/ml) for 24 hours. Cytoplasm and nucleus proteins were separated from the stimulated cells and the levels of NFAT5 and p65 protein (NF-kB subunit) were measured.

[3] = system: NFAT5 transcript BGT1 and AR; assay: NaCl-mediated up-regulation of NFAT5 transcripts (hypertonic condition), RAW264.7 cells, real-time PCR; type: cell-based, mouse; conditions: 1 μM pre-treatment 1 hour, NaCl 45 mM 3 hours
Protocol: It was investigated whether or not the factors regulated by NFAT5 under the hypertonic condition could be affected by the compound of Example 1. Particularly, RAW264.7 cells were distributed in a 6-well plate at the density of 1.5×10^5 cells/well, followed by culture and stabilization in 10% FBS-RPMI 1640 medium. The cells were pre-treated with the compound of Example 1 (1 μM) for 1 hour, and then stimulated with NaCl (45 mM) for 3 hours. mRNA was extracted from the cells, from which cDNA was synthesized.

[4] = target: T2, COX2 (Ovis aries, UniProt P79208); assay: COX inhibition, COX assay kit (Table 5); type: biochemical
T2 construct: purchased Cayman Co. 760111
T2 sequence (P79208 17-603): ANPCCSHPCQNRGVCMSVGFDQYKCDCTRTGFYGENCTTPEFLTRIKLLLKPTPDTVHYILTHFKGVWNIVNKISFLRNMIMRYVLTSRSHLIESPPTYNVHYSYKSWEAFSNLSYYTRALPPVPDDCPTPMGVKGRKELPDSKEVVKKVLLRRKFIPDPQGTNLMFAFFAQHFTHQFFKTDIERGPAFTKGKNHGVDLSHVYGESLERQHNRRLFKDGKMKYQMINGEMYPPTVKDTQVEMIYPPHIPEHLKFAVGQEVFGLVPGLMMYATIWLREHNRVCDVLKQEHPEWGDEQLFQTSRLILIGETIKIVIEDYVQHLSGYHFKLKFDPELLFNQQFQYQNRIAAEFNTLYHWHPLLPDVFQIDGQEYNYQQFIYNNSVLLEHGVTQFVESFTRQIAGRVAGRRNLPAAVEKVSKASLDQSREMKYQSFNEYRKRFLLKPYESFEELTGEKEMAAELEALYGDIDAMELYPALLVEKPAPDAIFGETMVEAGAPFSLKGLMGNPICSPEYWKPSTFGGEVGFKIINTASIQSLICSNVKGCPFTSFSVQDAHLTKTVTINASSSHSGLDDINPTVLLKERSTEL
Protocol: 10 μl of substrate and 10 μl of arachidonic acid were added thereto, followed by reaction for 10 minutes in the darkness. Then, OD590 was measured.

[5] = Cytotoxicity test (WST-8), L929; type: cell-based; conditions: mouse, L929 fibroblast cells (NCTC clone 929); L929, 24 hours
Protocol: To investigate the cytotoxicity of the derivative of the present invention, 5 kinds of cell lines (VERO: African green monkey kidney cell line, HFL-1: human embryonic lung cell line, L929: NCTC clone 929, mouse fibroblast cell line, NIH 3T3: mouse embryonic fibroblast cell line, and CHO-K1: Chinese hamster ovary cell line) were distributed in a 96-well plate at the density of 1×10^4 cells/well, which were treated with the compound of the present invention for 24 hours. The water-soluble tetrazolium salt WST-8 was added thereto. The orange colored formazan dye degraded by dehydrogenase in the live cells was read, followed by nonlinear regression to determine 50% growth inhibition concentration.

[6] = system: inflammatory cytokines (TNF-α, IL-6); assay: Inflammatory cytokines in LPS-stimulated spleen cells of collagen-induced arthritis mice (ELISA); type: in vivo; conditions: 15 and 60 mg/kg; arthritis mouse spleen cells, LPS 12 hours; FIG. 8
Protocol: Particularly, the mice having arthritis induced by collagen in Example 10 were used herein. Cells were extracted from the mouse spleen, which were cultured in a 12-well plate and stabilized. Cells were stimulated with LPS for 12 hours and the expressions of inflammatory cytokines (TNF-α, IL-6) were measured by ELISA.

[7] = system: NFAT5; assay: NFAT5 protein in LPS-stimulated spleen cells of collagen-induced arthritis mice; type: in vivo; conditions: CIA mouse spleen cells treated with LPS; FIG. 9
Source text: Particularly, the spleen cells of the mouse having arthritis induced by collagen by the same manner as described in Example 11 were stimulated with LPS. Protein was extracted from the cells, followed by quantification of NFAT5 protein.

[8] = Metabolic stability in human liver microsomes; type: in vitro ADME; conditions: human liver microsome fractions, 30 minutes
Protocol: Particularly, each compound was added to rat and human liver microsome fractions, followed by culture for 30 minutes. Each compound was administered via intravenous injection (iv) and oral-administration (po) to rat at the concentration of 5 mg/kg, followed by making pharmacokinetic profiles.

T1 sequence (Q9WV30 whole entry): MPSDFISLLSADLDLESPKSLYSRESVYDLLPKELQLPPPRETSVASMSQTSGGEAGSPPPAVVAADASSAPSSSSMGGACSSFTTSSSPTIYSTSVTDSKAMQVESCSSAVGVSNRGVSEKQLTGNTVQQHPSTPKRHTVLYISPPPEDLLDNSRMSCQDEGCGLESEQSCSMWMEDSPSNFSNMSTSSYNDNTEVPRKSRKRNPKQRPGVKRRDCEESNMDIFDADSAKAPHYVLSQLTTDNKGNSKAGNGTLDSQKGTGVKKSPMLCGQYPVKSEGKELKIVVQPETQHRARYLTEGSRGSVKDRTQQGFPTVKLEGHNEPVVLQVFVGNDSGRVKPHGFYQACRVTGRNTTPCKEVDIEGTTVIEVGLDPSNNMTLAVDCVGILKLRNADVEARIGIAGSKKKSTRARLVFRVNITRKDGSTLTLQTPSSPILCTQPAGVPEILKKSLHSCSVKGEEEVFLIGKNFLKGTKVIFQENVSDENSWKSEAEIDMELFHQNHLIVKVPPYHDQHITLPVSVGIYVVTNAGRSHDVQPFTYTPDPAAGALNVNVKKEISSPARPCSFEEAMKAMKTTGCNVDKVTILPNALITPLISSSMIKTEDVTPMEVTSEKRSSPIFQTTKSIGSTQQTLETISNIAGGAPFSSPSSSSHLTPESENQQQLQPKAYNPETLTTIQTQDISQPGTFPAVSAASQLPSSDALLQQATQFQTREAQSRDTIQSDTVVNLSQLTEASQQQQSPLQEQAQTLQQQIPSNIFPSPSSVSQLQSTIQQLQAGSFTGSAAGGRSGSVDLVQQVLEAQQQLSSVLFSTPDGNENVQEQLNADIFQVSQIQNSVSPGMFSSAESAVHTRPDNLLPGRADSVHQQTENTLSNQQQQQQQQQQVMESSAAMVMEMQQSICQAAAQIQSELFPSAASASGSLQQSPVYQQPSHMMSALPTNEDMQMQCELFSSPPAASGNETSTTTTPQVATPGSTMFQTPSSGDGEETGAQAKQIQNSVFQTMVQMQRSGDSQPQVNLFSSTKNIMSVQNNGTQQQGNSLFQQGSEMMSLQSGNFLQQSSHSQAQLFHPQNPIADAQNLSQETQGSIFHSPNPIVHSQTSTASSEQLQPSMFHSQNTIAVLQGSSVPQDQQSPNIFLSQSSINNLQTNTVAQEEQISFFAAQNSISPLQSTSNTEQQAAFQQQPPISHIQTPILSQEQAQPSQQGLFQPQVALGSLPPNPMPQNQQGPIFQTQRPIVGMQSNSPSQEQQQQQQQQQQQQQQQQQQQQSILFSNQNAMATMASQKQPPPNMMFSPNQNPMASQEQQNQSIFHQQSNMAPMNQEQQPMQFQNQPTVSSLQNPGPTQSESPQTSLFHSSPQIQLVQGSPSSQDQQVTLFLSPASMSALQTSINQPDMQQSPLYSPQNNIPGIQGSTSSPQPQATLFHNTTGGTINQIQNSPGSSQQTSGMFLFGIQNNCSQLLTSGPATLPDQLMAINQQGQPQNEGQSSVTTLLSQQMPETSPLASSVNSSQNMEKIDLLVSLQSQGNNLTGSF

Inhibition rate of NFAT5 transcription (%) ([1]; 1 μM): 11.2%
Inhibition rate of NFAT5 transcription (%) ([1]; 10 μM): 81.2%
inhibitory effect on COX2 (in words) [4]: weak inhibitory effect
inhibition rate ([4]; Conc. 20 μM, two values per substance): 15.5
inhibition at 20 µM ([4]; Conc. 20 μM, two values per substance, read-out: inhibition rate): 12.1%
inhibition rate ([4]; Conc. 100 μM, two values per substance): 25.7
inhibition at 100 µM ([4]; Conc. 100 μM, two values per substance, read-out: inhibition rate): 36.7%
IC50 ([4]; Table 5): > 100 µM
remaining compound, Human (%) [8]: 68.2 ± 6.1%
Compound: COc1ccc2c(Cc3ccccc3F)c3n(c(=O)c2c1OC)CCc1cc2c(cc1-3)OCO2 [Example 1, 13-(2-fluorobenzyl)-9,10-dimethoxy-5H-[1,3]dioxolo[4,5-g]isoquinolino[3,2-a]isoquinoline-8(6H)-one]
inhibiting NFAT5 activity (in words) ([1]; Table 3 and FIG. 1): remarkably excellent in inhibiting NFAT5 activity
increase of NFAT5 expression caused by LPS (from the phase of transcript) ([2]; 1 μM for 1 hour, LPS 12 hours, real-time PCR): suppressed
NFAT5 protein level increased by LPS (cytoplasm/nucleus) ([2]; 1 μM pre-treatment 1 hour, LPS 1 μg/ml 24 hours): reduced
NaCl-mediated up-regulation of BGT1 transcript ([3]; FIG. 5A): not changed
NaCl-mediated up-regulation of AR transcript ([3]; FIG. 5B): not changed
GI50 at 24 h [5]: 40.3 µM
expression of IL-6 [6]: reduced
expression of TNF-α [6]: reduced
expression of NFAT5 [7]: suppressed
